Results: patent US11065220B2, “Anti-pathogenic therapeutic compositions” (Wintermute Biomedical, Inc., priority 2017, dated 2021)

Key:
[1] = tested on: MRSA; assay: Iodonitrotetrazolium chloride assay of MRSA growth, various anthraquinones with L-Arg and UCA; assay type: cell-based, Staphylococcus aureus; conditions: FIG. 20
Experimental: Although the WT13-13 example compound described herein uses cassic acid (rhein) as the anthraquinones, other anthraquinones may be used. This is illustrated in FIG. 20, for example. In FIG. 20, antibiotic effects of other anthraquinones were tested against MRSA. As shown, identical ratios of L-Arg and UCA were combined with various anthraquinones, including cassic acid (Rhein), aloe-emodin (AloeE), and chrysophanol (Chyrs.). Formulations were tested for MRSA growth using an iodonitrotetrazolium chloride assay. Each compound was MRSA was assayed in media control and subtracted from the values taken from the wells containing MRSA to control for colorimetric alterations. Each MRSA well contained 100,000 CFUs in 100 microliters.
As shown in FIG. 20 discussed above, in addition to cassic acid, other anthraquinones were tested for activity using an iodonitrotetrazolium chloride assay. Each anthraquinone was assayed for activity against one or more pathogen. In FIG. 20 activity was tested against MRSA growth.

[2] = tested on: MRSA; assay: In-vitro resistance study, repeated sub-inhibitory exposures of MRSA; assay type: cell-based, Staphylococcus aureus; conditions: sub-inhibitory concentrations
Experimental: A number of standard in-vitro resistance studies were conducted to predict the onset and mechanism of resistance for an anti-pathogenic compound such as WT13-13. The standard test comprises exposing bacteria to sub-inhibitory concentrations of an antibiotic over a number of exposures and monitoring the bacterial growth. As the bacteria develop resistance to the drug, the growth rate will rise. Tests were performed by treating MRSA with sub-inhibitory concentrations of both WT13-13 and mupirocin (separately) in order to study the behavior of WT13-13 and compare with that of mupirocin. The horizontal dotted lines represent the ideal, non-resistant behavior. That is, if an antibiotic were effective and the bacteria not developing resistance to it, its growth curve would be flat and follow the dotted line. However, all antibiotics to date experience bacterial resistance and trend upwards of the dotted line, towards the MRSA-only control line (if an antibiotic reaches the control line, it is completely ineffective and the bacteria is resistant to the antibiotic). […] The shading 1201 highlights this behavior. […] The shading 1203 highlights this behavior. […] Such “anti-resistance” has not been reported in an antibiotic before.

Row | SMILES | inhibition of MRSA growth [1] | development of resistance over multiple exposures (growth trend) [2]
1 | O=C(O)C(=O)O [oxcalic acid] | Inhibition of growth | 
2 | C/C(=C\C(=O)OCCCCCCCCC(=O)O)C[C@@H]1OC[C@H](C[C@@H]2O[C@H]2[C@@H](C)[C@H](C)O)[C@@H](O)[C@H]1O [mupirocin] |  | trends upwards towards the control line
3 | O=C1c2cccc(O)c2C(=O)c2c(O)cccc21 [dantron] | Inhibition of growth | 
